SMILES strings stand for the structures.

Type in all cases: in vivo
Test [1] relates to Plasmopara viticola (PLASVI). Put plainly: Downy Mildew of Grape one day protectant (1DP). Particulars: grape (Carignane), sprayed to runoff, rate 200 ppm. As to the method: Final treatment volumes were obtained by adding 0.1 percent aqueous Ethomeen T25 or 0.1 percent aqueous Spraymate X77+0.1 percent wt./vol. ammonium sulfate^+. Downy Mildew of Grape (Plasmopara viticola-[…]) Vines (cultivar Carignane) were grown from seed in a soilless peat-based potting mixture “Metro-Mix 360” (W.R Grace and Co.) until the seedlings were 10-20 cm tall. These plants were then sprayed to runoff with the test compound at a rate of 200 ppm. After 24 hours the test plants were inoculated by spraying with an aqueous sporangia suspension of Plasmopara viticola ([…]). The plants were then transferred to a dew chamber for 24 hours, then to the greenhouse until disease developed on the untreated control plants.

Test [2] concerns Phytophthora infestans (PHYTIN). Particulars: 1DP, tomato (rutgers), sprayed to runoff, rate 200 ppm.
The test system of test [3] is Puccinia recondita f. sp. tritici (PUCCRT). Put plainly: Brown Rust of Wheat one day protectant (1DP). Particulars: wheat (Monon), sprayed to runoff, rate 200 ppm. On the procedure: (§1) Final treatment volumes were obtained by adding 0.1 percent aqueous Ethomeen T25 or 0.1 percent aqueous Spraymate X77+0.1 percent wt./vol. ammonium sulfate^+. Brown Rust of Wheat (Puccinia recondita f. sp. tritici-PUCCRT) (1 DP) Wheat (cultivar Monon) was grown in plastic pots (6.2 cm×8.75 cm) containing 50 percent mineral soil, 50 percent Metro-Mix 360 (W.R Grace and Co.) until the seedlings were 10-20 cm tall. These plants were then sprayed to runoff with the test compound at a rate of 200 ppm. After 24 hours the test plants were inoculated by spraying with an aqueous spore suspension of Puccinia recondita f. sp. tritici (PUCCRT). The plants were then transferred to a dew chamber for 24 hours, then to the greenhouse until disease developed on the untreated control plants.

Test [4] deals with Leptosphaeria nodorum (LEPTNO). Put plainly: Glume Blotch of Wheat one day protectant (1DP). Particulars: wheat (Yuma), sprayed to runoff, rate 200 ppm. On the procedure:
as §1, with “Glume Blotch” for “Brown Rust”, “(Leptosphaeria nodorum-[…])” for “(Puccinia recondita f. sp. tritici-PUCCRT) (1 DP)”, “Yuma)” for “Monon)”, “Co.).” for “Co.)”, “Leptosphaeria nodorum ([…]).” for “Puccinia recondita f. sp. tritici (PUCCRT).”

The subject of test [5] is Septoria tritici (SEPTTR). The experiment in a line: Speckled Leaf Blotch of Wheat one day protectant (1DP). Particulars: wheat (Monon), sprayed to runoff, rate 200 ppm. On the procedure: as §1, with “Speckled Leaf Blotch” for “Brown Rust”, “(Septoria tritici-[…])” for “(Puccinia recondita f. sp. tritici-PUCCRT) (1 DP)”, “Septoria” for “Puccinia recondita f. sp.”, “([…]).” for “(PUCCRT).”

Test [6] concerns Erysiphe graminis f. sp. tritici (ERYSGT). The experiment in a line: Powdery Mildew of Wheat one day protectant (1DP). Particulars: wheat (Monon), sprayed to runoff, rate 200 ppm. As to the method: Final treatment volumes were obtained by adding 0.1 percent aqueous Ethomeen T25 or 0.1 percent aqueous Spraymate X77+0.1 percent wt./vol. ammonium sulfate^+. Powdery Mildew of Wheat (Erysiphe graminis f. sp. tritici-[…]) Wheat (cultivar Monon) was grown in plastic pots (6.2 cm×8.75 cm) containing 50 percent mineral soil, 50 percent Metro-Mix 360 (W.R Grace and Co.) until the seedlings were 10-20 cm tall. These plants were then sprayed to runoff with the test compound at a rate of 200 ppm. After 24 hours the test plants were inoculated with Erysiphe graminis f. sp. tritici ([…]) by dusting spores from stock plants onto the test plants. The plants were then transferred to the greenhouse until disease developed on the untreated control plants.

The subject of test [7] is Puccinia recondita f. sp. tritici (PUCCRT). Put plainly: Brown Rust of Wheat Drop Line Test. Particulars: Drop Line Test 0.5 μg/leaf, 2 microliter drop on wheat leaf. On the procedure:
as §1, with “Brown” for “Final treatment volumes were obtained by adding 0.1 percent aqueous Ethomeen T25 or 0.1 percent aqueous Spraymate X77+0.1 percent wt./vol. ammonium sulfate^+. Brown”, “plants. In Example 3, a Drop Line Test was used, wherein instead of spraying the plant to runoff, a 2 microliter drop was placed on the wheat leaf and observed for disease control.” for “plants.”

On to `C[C@H](N)C(=O)NC(CC(=O)C1=C(O)[C@H](CN)NC1=O)(C(=O)O)C(=O)O` [Compound II], for which the “PLASVI percent control of plant disease” value in test [1] is given as “− (− = 0-29 percent control of plant disease)”. For the same molecule, the “PHYTIN percent control of plant disease” value in test [2] is “+ (+ = 30-74 percent control of plant disease)”. In test [3], the “PUCCRT percent control of plant disease” value is on record as “++ (++ = 75-100 percent control of plant disease)”. Besides, the “LEPTNO percent control of plant disease” value in test [4] is “− (− = 0-29 percent control of plant disease)”. Moreover, the “SEPTTR percent control of plant disease” value in test [5] was “+ (+ = 30-74 percent control of plant disease)”. The “ERYSGT percent control of plant disease” value in test [6] was “− (− = 0-29 percent control of plant disease)”.

Turning to `NC[C@@H]1NC(=O)C(C(=O)CC(CC(=O)O)(NC(=O)[C@@H](N)CO)C(=O)O)=C1O` (some centres unmarked) [Compound VI], the “PHYTIN percent control of plant disease” value in test [2] is recorded as “− (− = 0-29 percent control of plant disease)”. For the same molecule, the “PUCCRT percent control of plant disease” value in test [3] is on record as “++ (++ = 75-100 percent control of plant disease)”. In addition, the “LEPTNO percent control of plant disease” value in test [4] is recorded as “− (− = 0-29 percent control of plant disease)”. For the same molecule, the “SEPTTR percent control of plant disease” value in test [5] is “+ (+ = 30-74 percent control of plant disease)”. Moreover, the “ERYSGT percent control of plant disease” value in test [6] was “− (− = 0-29 percent control of plant disease)”.

Regarding `C[C@H](N)C(=O)NC(CC(=O)O)(CC(=O)C1C(=O)N[C@@H](CN)C1=O)C(=O)O` (some centres unmarked) [Compound III], the “PUCCRT percent control of plant disease” value in test [7] is listed as “+ (+ = 30-74 percent control of plant disease)”.

With `NC[C@@H]1NC(=O)C(C(=O)CC(CC(=O)O)(NC(=O)[C@@H](N)CO)C(=O)O)=C1O` (some centres unmarked) [Compound V], the “PHYTIN percent control of plant disease” value in test [2] is “+ (+ = 30-74 percent control of plant disease)”. Moreover, in test [3], the “PUCCRT percent control of plant disease” value was “++ (++ = 75-100 percent control of plant disease)”. Besides, the “LEPTNO percent control of plant disease” value in test [4] was “− (− = 0-29 percent control of plant disease)”. The “SEPTTR percent control of plant disease” value in test [5] is given as “− (− = 0-29 percent control of plant disease)”. The “ERYSGT percent control of plant disease” value in test [6] is recorded as “− (− = 0-29 percent control of plant disease)”.

Values taken from patent US20070173539A1, “Use of malonomicin and analogs in fungicidal applications” (priority 2006, published 2007).
